Active and inactive are the calls of the source. The rule behind the calls is not given here.
Columns and labels:
MGC-803 = assay: Antiproliferative activity against human MGC-803 cells assessed as inhibition of cell growth measured after 72 hrs by SRB assay; assay type: functional, cell-based; details: MGC-803, 72 h
SW1990 = assay: Antiproliferative activity against human SW1990 cells assessed as inhibition of cell growth measured after 72 hrs by SRB assay; assay type: functional, cell-based; details: SW1990, 72 h
PC-3 = assay: Antiproliferative activity against human PC-3 cells assessed as inhibition of cell growth measured after 72 hrs by SRB assay; assay type: functional, cell-based; details: PC-3, 72 h
TE-1 = assay: Antiproliferative activity against human TE-1 cells assessed as inhibition of cell growth measured after 72 hrs by SRB assay; assay type: functional, cell-based; details: TE-1, 72 h
HGC-27 [1] = assay: Antiproliferative activity against human HGC-27 cells assessed as inhibition of cell growth measured after 72 hrs by SRB assay; assay type: functional, cell-based; details: HGC-27, 72 h
HGC-27 [2] = assay: Inhibition of colony formation in human HGC-27 cells measured for 24 hrs by crystal violet staining based assay; assay type: functional, cell-based; details: dose microM <=2, time 24.0 hrs
HGC-27 [3] = assay: Antimigratory activity against human HGC-27 cells assessed as inhibition of cell migration measured after 24 hrs by cell scratch assay; assay type: functional, cell-based; details: dose microM <=2, time 24.0 hrs
[4] = Drug uptake in human HGC-27 cells assessed as increase in fluorescence intensity by fluorescence microscopic analysis; assay type: ADME, cell-based; details: dose 2-8 µM, time <=60 min
[5] = Drug localization in mitochondria of human HGC-27 cells at 2 uM incubated for 1 hr by Mitotracker red dye based confocal laser microscopy analysis; assay type: ADME; details: hgc-27, 1 h
HGC-27 [6] = assay: Induction of mitochondrial membrane potential loss in human HGC-27 cells assessed as decrease in red fluorescence intensity upto 2 uM incubated for 24 hrs by TMRM dye based flow cytometric analysis; assay type: functional, cell-based; details: dose microM <=2, time 24.0 hrs
HGC-27 [7] = assay: Induction of apoptosis in human HGC-27 cells assessed as increase in Bax expression upto 2 uM measured after 24 hrs by Western blot analysis; assay type: functional, cell-based; details: dose microM <=2, time 24.0 hrs
HGC-27 [8] = assay: Induction of apoptosis in human HGC-27 cells assessed as increase in cytochrome-c expression upto 2 uM measured after 24 hrs by Western blot analysis; assay type: functional, cell-based; details: dose microM <=2, time 24.0 hrs
HGC-27 [9] = assay: Induction of apoptosis in human HGC-27 cells assessed as increase in cleaved caspase-9 expression upto 2 uM measured after 24 hrs by Western blot analysis; assay type: functional, cell-based; details: dose microM <=2, time 24.0 hrs
HGC-27 [10] = assay: Induction of apoptosis in human HGC-27 cells assessed as increase in cleaved caspase-3 expression upto 2 uM measured after 24 hrs by Western blot analysis; assay type: functional, cell-based; details: dose microM <=2, time 24.0 hrs
HGC-27 [11] = assay: Induction of apoptosis in human HGC-27 cells assessed as decrease in Bcl-2 expression upto 2 uM measured after 24 hrs by Western blot analysis; assay type: functional, cell-based; details: dose microM <=2, time 24.0 hrs
[12] = Cytotoxicity against human GES1 cells assessed as inhibition of cell growth measured after 72 hrs by SRB assay; assay type: toxicity, cell-based
[13] = Drug uptake in human HGC-27 cells assessed as increase in fluorescence intensity of green signal at 8 uM measured after 1 hr by fluorescence microscopic analysis; assay type: ADME, cell-based; details: hgc-27, 1 h
[14] = Drug localization in nucleus of human HGC-27 cells at 2 uM incubated for 1 hr by DAPI staining based confocal laser microscopic analysis; assay type: ADME, cell-based; details: hgc-27, 1 h
HGC-27 [15] = assay: Induction of apoptosis in human HGC-27 cells assessed as increase in total apoptotic cells by Hoechst 33342 staining based fluorescence assay; assay type: functional, cell-based; details: dose 0.5-2 µM
HGC-27 [16] = assay: Induction of apoptosis in human HGC-27 cells assessed as enhance brightness of fluorescence at 0.5 to 2 uM by Hoechst 33342 staining based fluorescence assay; assay type: functional, cell-based; details: dose 0.5-2 µM
HGC-27 [17] = assay: Induction of apoptosis in human HGC-27 cells assessed as nuclear cohesion at 0.5 to 2 uM by Hoechst 33342 staining based fluorescence assay; assay type: functional, cell-based; details: dose 0.5-2 µM
HGC-27 [18] = assay: Induction of apoptosis in human HGC-27 cells assessed as nuclear rupture at 0.5 to 2 uM by Hoechst 33342 staining based fluorescence assay; assay type: functional, cell-based; details: dose 0.5-2 µM

IC50 (MGC-803): 640 nM | IC50 (SW1990): 860 nM | IC50 (PC-3): 680 nM | Drug uptake [4]: Dose-Dependent Effect and Tde | Drug uptake [5]: Active | Drug uptake [13]: Active | Drug uptake [14]: Not Active
Structure (SMILES): C=C1C(=O)[C@]23[C@H](O)[C@H]1C[C@H](O)[C@H]2[C@]12CCCC(C)(C)[C@H]1C[C@H]3O[C@H]2OCCCCCc1cn(CCOCCOCCOCCN2C(=O)c3cccc4c(N5CCCCC5)ccc(c34)C2=O)nn1
IC50 (TE-1): 730 nM | IC50 (HGC-27 [1]): 390 nM | Activity (HGC-27 [2]): Dose-Dependent Effect | Activity (HGC-27 [3]): Dose-Dependent Effect | Activity (HGC-27 [6]): Active | Activity (HGC-27 [7]): Active | Activity (HGC-27 [8]): Active | Activity (HGC-27 [9]): Active | Activity (HGC-27 [10]): Active | Activity (HGC-27 [11]): Active | IC50 at 72 h [12]: 18100 nM | Activity (HGC-27 [15]): Active | Activity (HGC-27 [16]): Active | Activity (HGC-27 [17]): Active | Activity (HGC-27 [18]): Active
